Target: recombinant human nicotinic acid receptor (NAR) (Homo sapiens, UniProt Q8TDS4)
Experiment: Nicotinic acid receptor assay: inhibition of forskolin-stimulated cAMP accumulation (MesoScale Discovery cAMP detection kit) in CHO cells
Type: cell-based
Conditions: CHO cells expressing recombinant human NAR, activity class, read-out: NA EC50 camp
Procedure: The nicotinic acid receptor agonist activity of the inventive compounds was determined by following the inhibition of forskolin-stimulated cAMP accumulation in cells using the MesoScale Discovery cAMP detection kit following the manufacturer's protocol. Briefly, Chinese Hamster Ovary (CHO) cells expressing recombinant human nicotinic acid receptor (NAR) were harvested enzymatically, washed 1× in phosphate buffered saline (PBS) and resuspended in PBS containing 0.5 mM IBMX at 3×10^6 cells/mL. Ten μL of cell suspension was added to each well of a 384-well plate which contained 10 μL of test compounds. Test compounds were diluted with PBS containing 6 μM of forskolin. Plates were incubated for 30 minutes at room temperature after the addition of cells. Lysis buffer containing cAMP-Tag was added to each well (10 μL/well) as per the manufacturer's protocol. Plates were then incubated from 45 minutes to overnight. Prior to reading, 10 μt of read buffer was added to each well, and the plate was read in a Sector 6000 plate imager. The signal was converted to cAMP concentration using a standard curve run on each plate. Compound EC50 values were determined from concentration gradients of test compounds.

recombinant human nicotinic acid receptor (NAR), sequence (Q8TDS4 whole entry): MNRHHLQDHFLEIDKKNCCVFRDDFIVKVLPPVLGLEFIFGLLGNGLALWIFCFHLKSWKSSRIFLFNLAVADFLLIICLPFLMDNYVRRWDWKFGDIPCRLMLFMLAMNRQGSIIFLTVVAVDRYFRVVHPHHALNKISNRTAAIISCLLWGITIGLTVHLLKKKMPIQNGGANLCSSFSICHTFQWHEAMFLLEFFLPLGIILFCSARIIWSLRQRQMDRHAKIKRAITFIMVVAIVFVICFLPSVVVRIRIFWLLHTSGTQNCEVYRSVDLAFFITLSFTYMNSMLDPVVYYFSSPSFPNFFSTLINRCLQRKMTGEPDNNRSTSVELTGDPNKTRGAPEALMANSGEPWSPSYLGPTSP

EC50: 100 to 1000 nM
Structure (SMILES): O=c1[nH]c(=O)c2c(Cc3cccc(Br)c3)cc(=O)oc2[nH]1 [Compound 238]

— patent US20100227873A1, “NITROGEN-CONTAINING HETEROCYCLIC COMPOUNDS AND METHODS OF USE THEREOF” (Schering Corporation, priority 2005, published 2010)
